Experimental findings from patent US20190263804A1, “AZABENZIMIDAZOLE DERIVATIVES AS PI3K BETA INHIBITORS” (Janssen Pharmaceutica NV, priority 2016, published 2019) are described below.

SMILES strings stand for the structures.

The target in test [1] is T1, PIK3Cβ_h (Homo sapiens, UniProt P42338).
T1 construct: purchased DiscoveRx Corporation, San Diego (contract assay service)
The experiment in a line: KINOMEscan enzyme binding assay, PIK3Cβ. As to conditions: KINOMEscan (DiscoveRx). Here is the method:
(§1) Enzyme Binding Assays (KINOMEscan®)
(§2) Kinase enzyme binding affinities of compounds disclosed herein were determined using the KINOMEscan technology performed by DiscoveRx Corporation, San Diego, Calif., USA (www.kinomescan.com). Table A reports the obtained Kd values (nM), with the Kd being the inhibitor binding constant (‘n.d.’ means not determined): […]

For test [2], the target named is T2, MTOR_h (Homo sapiens, UniProt P42345).
T2 construct: purchased DiscoveRx Corporation, San Diego (contract assay service)
The experiment in a line: KINOMEscan enzyme binding assay, MTOR. The conditions noted are these: KINOMEscan (DiscoveRx). Here is the method:
as §1, §2

The target in test [3] is T3, PIK3Cα_h (Homo sapiens, UniProt P42336).
T3 construct: purchased DiscoveRx Corporation, San Diego (contract assay service)
The test is described as follows: KINOMEscan enzyme binding assay, PIK3Cα. The conditions noted are these: KINOMEscan (DiscoveRx). On the procedure: as §1, §2

The target of test [4] is T4, PIK3Cδ_h (Homo sapiens, UniProt O00329).
T4 construct: purchased DiscoveRx Corporation, San Diego (contract assay service)
T4 sequence (O00329 1-1044): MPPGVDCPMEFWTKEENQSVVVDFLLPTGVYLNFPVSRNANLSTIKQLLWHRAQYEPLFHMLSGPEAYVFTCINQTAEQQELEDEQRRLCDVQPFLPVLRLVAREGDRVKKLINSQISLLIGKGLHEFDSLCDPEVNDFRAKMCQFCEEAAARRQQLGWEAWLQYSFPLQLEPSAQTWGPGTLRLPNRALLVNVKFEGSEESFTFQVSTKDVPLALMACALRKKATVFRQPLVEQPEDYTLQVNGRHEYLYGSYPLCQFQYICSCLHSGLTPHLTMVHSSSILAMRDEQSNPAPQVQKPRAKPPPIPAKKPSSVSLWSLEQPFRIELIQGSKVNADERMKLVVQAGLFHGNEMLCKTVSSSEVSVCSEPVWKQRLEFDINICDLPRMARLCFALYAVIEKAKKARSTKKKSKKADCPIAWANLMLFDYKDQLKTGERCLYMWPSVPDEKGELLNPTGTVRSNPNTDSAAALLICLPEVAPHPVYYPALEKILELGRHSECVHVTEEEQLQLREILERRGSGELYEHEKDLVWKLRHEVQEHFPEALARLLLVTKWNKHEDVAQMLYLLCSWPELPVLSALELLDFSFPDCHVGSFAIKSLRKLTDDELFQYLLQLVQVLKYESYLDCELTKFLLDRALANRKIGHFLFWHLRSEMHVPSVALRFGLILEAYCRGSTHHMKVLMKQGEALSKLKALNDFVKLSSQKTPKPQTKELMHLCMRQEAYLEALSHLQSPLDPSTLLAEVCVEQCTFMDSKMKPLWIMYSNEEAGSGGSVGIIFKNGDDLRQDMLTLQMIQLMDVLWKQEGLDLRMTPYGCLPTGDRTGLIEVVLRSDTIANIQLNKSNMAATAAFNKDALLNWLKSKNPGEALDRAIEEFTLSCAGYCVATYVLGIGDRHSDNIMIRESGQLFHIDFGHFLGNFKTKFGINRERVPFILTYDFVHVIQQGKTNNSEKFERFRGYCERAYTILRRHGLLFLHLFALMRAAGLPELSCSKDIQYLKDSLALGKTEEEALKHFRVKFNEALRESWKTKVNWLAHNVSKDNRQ
The experiment in a line: KINOMEscan enzyme binding assay, PIK3Cδ. The conditions noted are these: KINOMEscan (DiscoveRx). Here is the method:
as §1, §2

For test [5], the system named is phosphorylation of Akt (Thr308) in PC-3 cells. The experiment in a line: Cellular assay: phospho-Akt (Thr308) MSD ELISA in PC-3 cells. As to conditions: Homo sapiens, 1 h, 60 min compound incubation, read-out: IC50 pAkt_Thr308. It counts as cell-based. On the procedure: (§3) Cellular activity of PI3K(3 inhibitors was determined by quantifying the phosphorylation of Akt in PC-3 cells. Akt phosphorylated at Ser473 and Thr308 were measured using an enzyme-linked immunosorbent assay (ELISA; Meso Scale Discovery (MSD), Gaithersburg, Md.) and specific primary antibodies from MSD.
(§4) On day 1, PC3 cells (ATCC # […]) were seeded into PerkinElmer MW96 plates at 25.000 cells per well, in 75 μl complete culture medium (DMEM high glucose, AQmedia™, D0819, Sigma-Aldrich) containing 10% heat inactivated FCS and incubated at 37° C., 5% CO2 during 24 hours. On day 2, compound or DMSO (0.3%) was added and cells were further incubated for 60 min at 37° C., 5% CO2 in a total volume of 100 μl of medium.
(§5) The phosphoprotein assay was executed according to vendor instructions in the Phospho-Akt (Ser473) Assay Whole Cell Lysate Kit (MSD # K15100D-3) and the Phospho-Akt (Thr308) Assay Whole Cell Lysate Kit (MSD # K151DYD-3) using the lysis, blocking and wash buffer provided.
(§6) Briefly, at the end of the cell treatment period, media were removed by aspiration and adherent cells were lysed in 50 μl ice-cold lysis buffer. MSD plates are supplied pre-coated with capture antibodies for Phospho-Akt (Ser473 and Thr308). After blocking, lysates from tissue culture plates were added and plates were washed. Then, a solution containing the detection antibody (anti-total Akt conjugated with an electrochemiluminescent compound-MSD Sulfo-tag label) was added. The signals were detected using an MSD SECTOR Imager 6000 and are proportional to the phospho-Akt titres.
(§7) Data were processed. The percentage of inhibition was plotted against the log concentration of test compounds, and the sigmoidal log concentration-effect curve of best fit was calculated by nonlinear regression analysis. From these concentration-response curves, the IC50 values were calculated. Five concentrations were used for curve fitting.
On the technique in general: ELISA stands for enzyme-linked immunosorbent assay.

The subject of test [6] is phosphorylation of Akt (Ser473) in PC-3 cells. The experiment in a line: Cellular assay: phospho-Akt (Ser473) MSD ELISA in PC-3 cells. The conditions noted are these: Homo sapiens, 1 h, 60 min compound incubation, read-out: IC50 pAkt_S473. It counts as cell-based. On the procedure: as §3, §4, §5, §6, §7
The target of test [7] is T5, PIK3Cγ_h (Homo sapiens, UniProt P48736).
T5 construct: purchased DiscoveRx Corporation, San Diego (contract assay service)
The experiment in a line: KINOMEscan enzyme binding assay, PIK3Cγ. As to conditions: KINOMEscan (DiscoveRx). On the procedure: as §1, §2

T5 sequence (P48736 whole entry): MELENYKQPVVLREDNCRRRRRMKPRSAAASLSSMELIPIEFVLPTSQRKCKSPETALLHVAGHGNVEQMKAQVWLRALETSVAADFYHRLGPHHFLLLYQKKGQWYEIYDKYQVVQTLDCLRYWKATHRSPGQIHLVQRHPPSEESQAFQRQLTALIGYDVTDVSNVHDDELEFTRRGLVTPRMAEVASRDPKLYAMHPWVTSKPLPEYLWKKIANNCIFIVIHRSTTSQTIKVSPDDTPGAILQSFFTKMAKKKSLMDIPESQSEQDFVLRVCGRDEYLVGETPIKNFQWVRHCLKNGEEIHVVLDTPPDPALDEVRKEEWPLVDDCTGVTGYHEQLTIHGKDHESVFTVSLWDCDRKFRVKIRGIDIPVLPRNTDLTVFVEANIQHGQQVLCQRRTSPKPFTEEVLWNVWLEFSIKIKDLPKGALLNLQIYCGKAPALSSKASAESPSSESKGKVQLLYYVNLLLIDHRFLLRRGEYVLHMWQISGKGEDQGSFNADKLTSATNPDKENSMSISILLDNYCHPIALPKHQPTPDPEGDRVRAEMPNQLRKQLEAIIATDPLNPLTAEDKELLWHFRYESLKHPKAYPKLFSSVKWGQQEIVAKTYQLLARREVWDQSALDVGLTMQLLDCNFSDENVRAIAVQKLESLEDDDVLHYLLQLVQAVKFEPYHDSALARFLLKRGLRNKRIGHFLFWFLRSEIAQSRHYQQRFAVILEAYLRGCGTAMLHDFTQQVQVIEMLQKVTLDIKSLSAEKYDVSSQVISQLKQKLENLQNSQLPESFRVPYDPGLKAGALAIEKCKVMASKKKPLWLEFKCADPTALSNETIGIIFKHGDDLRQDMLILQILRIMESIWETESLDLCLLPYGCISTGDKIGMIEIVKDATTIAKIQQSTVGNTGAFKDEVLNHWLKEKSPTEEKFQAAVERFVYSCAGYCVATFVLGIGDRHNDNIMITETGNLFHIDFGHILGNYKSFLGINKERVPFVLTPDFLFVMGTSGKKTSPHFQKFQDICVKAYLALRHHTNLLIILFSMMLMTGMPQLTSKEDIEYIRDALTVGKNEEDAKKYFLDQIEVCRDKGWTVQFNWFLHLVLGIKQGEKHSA
T1 sequence (P42338 whole entry): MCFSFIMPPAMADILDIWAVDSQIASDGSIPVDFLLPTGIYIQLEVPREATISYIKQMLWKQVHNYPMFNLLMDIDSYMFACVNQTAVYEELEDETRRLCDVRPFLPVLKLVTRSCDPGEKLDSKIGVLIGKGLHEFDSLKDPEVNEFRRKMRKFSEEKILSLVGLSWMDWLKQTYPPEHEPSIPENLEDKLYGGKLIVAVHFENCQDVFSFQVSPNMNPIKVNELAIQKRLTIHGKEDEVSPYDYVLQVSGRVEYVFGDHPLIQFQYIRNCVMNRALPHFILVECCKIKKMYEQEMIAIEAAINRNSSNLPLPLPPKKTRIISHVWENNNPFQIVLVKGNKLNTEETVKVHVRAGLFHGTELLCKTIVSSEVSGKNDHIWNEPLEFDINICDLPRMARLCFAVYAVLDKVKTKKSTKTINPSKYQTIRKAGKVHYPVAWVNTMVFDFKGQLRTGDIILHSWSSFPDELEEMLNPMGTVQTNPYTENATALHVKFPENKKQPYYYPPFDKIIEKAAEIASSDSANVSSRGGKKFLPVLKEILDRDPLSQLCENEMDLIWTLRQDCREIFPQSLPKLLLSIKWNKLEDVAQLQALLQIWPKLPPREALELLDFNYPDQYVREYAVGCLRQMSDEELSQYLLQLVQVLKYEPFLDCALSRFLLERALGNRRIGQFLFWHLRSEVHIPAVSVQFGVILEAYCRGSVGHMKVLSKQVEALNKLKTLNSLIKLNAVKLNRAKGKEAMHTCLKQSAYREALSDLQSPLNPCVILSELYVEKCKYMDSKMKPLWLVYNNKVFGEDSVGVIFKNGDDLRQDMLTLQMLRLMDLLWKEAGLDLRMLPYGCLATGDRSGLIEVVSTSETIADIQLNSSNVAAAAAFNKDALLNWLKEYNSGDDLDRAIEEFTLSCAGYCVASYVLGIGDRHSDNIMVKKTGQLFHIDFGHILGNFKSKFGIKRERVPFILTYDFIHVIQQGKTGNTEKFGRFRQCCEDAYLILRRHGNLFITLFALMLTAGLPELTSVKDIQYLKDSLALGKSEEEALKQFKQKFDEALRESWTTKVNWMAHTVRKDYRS
T3 sequence (P42336 whole entry): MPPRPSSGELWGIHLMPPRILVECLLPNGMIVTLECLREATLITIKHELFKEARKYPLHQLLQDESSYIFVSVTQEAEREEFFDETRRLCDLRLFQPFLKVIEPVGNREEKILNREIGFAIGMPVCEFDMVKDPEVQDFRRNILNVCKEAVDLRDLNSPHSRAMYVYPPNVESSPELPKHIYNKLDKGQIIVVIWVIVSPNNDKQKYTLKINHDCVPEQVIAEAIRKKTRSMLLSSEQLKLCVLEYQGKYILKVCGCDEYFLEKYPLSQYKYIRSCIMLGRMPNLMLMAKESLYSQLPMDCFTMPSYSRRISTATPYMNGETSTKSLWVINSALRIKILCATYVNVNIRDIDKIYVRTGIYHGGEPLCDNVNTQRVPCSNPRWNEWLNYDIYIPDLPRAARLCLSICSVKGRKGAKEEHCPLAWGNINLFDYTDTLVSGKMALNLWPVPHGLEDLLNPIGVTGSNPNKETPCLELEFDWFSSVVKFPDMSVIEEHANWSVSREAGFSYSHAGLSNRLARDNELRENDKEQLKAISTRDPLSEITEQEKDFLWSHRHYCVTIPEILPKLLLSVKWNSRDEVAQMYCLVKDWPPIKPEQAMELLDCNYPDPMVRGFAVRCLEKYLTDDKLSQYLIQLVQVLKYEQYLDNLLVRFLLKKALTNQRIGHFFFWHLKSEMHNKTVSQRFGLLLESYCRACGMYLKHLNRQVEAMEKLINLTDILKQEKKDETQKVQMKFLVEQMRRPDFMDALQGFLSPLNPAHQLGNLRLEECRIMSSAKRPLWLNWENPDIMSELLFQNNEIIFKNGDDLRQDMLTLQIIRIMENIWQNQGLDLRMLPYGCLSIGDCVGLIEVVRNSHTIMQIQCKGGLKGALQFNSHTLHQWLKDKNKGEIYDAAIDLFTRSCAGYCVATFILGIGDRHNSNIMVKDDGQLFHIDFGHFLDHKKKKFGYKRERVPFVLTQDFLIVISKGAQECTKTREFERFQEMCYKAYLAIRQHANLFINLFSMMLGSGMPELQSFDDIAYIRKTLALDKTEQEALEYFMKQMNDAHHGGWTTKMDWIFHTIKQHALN

For orientation: Kd means a measure of binding affinity in units of concentration. Low readings indicate tighter binding, high ones weaker binding. In general, IC50 refers to the concentration at which inhibition is half-maximal. In the case of `Cc1c(Cl)cccc1Cn1c(C)nc2cnc(N3CCOCC3)cc21` [Compound 1], the Kd in test [1] was 2 nM; in test [2] it was no less than 30200 nM; in test [3], 2100 nM; in test [4], 600 nM; in test [7], 9500 nM. The IC50 in test [5] is 30 nM; in test [6], 40 nM.
Turning to `Cc1nc2cnc(N3CCOCC3)cc2n1Cc1cccc2c1CNCC2` [Compound 9], the Kd in test [1] was 79 nM; in test [2] it was greater than 30200 nM; in test [3] it was greater than 30200 nM; in test [4], 5100 nM; in test [7], greater than 30200 nM. Besides, the IC50 in test [5] was roughly 460 nM; in test [6], roughly 480 nM.
In the case of `Cc1c(Cn2c(CN3CC(O)C3)nc3cnc(N4CCOCC4)cc32)cccc1C(F)(F)F` [Compound 7], the Kd is 3 nM in test [1]; 4600 nM in test [2]; 2200 nM in test [3]; 1100 nM in test [4]; greater than 30200 nM in test [7]. Further, the half-inhibitory concentration (IC50) in test [5] is 390 nM; in test [6], 480 nM.
As to `Cc1c(Cn2c(CN3CCS(=O)(=O)CC3)nc3cnc(N4CCOCC4)cc32)cccc1C(F)(F)F` [Compound 8], the Kd in test [1] is 11 nM; in test [2], greater than 30200 nM; in test [3], 11000 nM; in test [4] it was 2600 nM; in test [7] it was greater than 30200 nM. In addition, the concentration for half-maximal inhibition (IC50) in test [5] stood at 290 nM.
With `Cc1c(Cn2c(C)nc3cnc(N4CCOCC4)cc32)cccc1C(F)(F)F` [Compound 2], the Kd in test [1] is 2 nM; in test [2] it was greater than 30200 nM; in test [3] it was 3700 nM; in test [4] it was 1500 nM; in test [7], 22400 nM. Also, the 50% inhibitory concentration (IC50) was found to be 430 nM in test [5] and 180 nM in test [6].
`Cc1cccc(Cn2c(C)nc3c(N)nc(C4=CCOCC4)cc32)c1C` [Compound 12]: the Kd in test [1] is 3 nM; in test [2] it was greater than 30200 nM; in test [3], 13200 nM; in test [4] it was 700 nM; in test [7] it was greater than 30200 nM. Also, the values for the concentration for half-maximal inhibition (IC50) in test [5] and in test [6] were 110 nM and 310 nM, respectively.
For the compound `Cc1c(Cl)cccc1Cn1c(CN2CCS(=O)(=O)CC2)nc2cnc(N3CCOCC3)cc21` [Compound 5], the Kd in test [1] was 4 nM; in test [2], greater than 30200 nM; in test [3] it was 2600 nM; in test [4], 1500 nM; in test [7] it was greater than 30200 nM. Moreover, the 50% inhibitory concentration (IC50) in test [5] was 130 nM; in test [6] it was roughly 100 nM.
Turning to `Cc1cccc(Cn2c(C)nc3c(N)nc(N4CCOCC4)cc32)c1C` [Compound 17], the Kd in test [1] is 19 nM; in test [2], greater than 30200 nM; in test [3], 8300 nM; in test [4], 1500 nM; in test [7], greater than 30200 nM. Also, the values for the IC50 in test [5] and in test [6] were 190 nM and roughly 230 nM, respectively.
For `Cc1c(Cn2c(CO)nc3cnc(N4CCOCC4)cc32)cccc1C(F)(F)F` [Compound 6], the Kd was 1 nM in test [1]; no less than 30200 nM in test [2]; 2800 nM in test [3]; 800 nM in test [4]; 18200 nM in test [7]. In addition, the half-inhibitory concentration (IC50) turned out to be 40 nM in test [5] and 50 nM in test [6].
As for `Cc1c(Cn2c(CN3CC4(CC(O)C4)C3)nc3cnc(N4CCOCC4)cc32)cccc1C(F)(F)F` [Compound 3], the dissociation constant Kd in test [1] is 1 nM; in test [2], greater than 30200 nM; in test [3], 1600 nM; in test [4] it was 200 nM; in test [7], greater than 30200 nM. The values for the half-inhibitory concentration (IC50) in test [5] and in test [6] were 40 nM and 70 nM, respectively.
Turning to `Cc1nc2cnc(N3CCOCC3)cc2n1Cc1cccc2c1CN(C)CC2` [Compound 10], the equilibrium dissociation constant (Kd) is 100 nM in test [1]; greater than 30200 nM in test [2]; 26900 nM in test [3]; 4200 nM in test [4]; greater than 30200 nM in test [7]. Moreover, the half-maximal inhibitory concentration (IC50) in test [5] and in test [6] was greater than 510 nM each time.
Consider `Cc1c(F)cccc1Cn1c(C)nc2c(N)nc(C3=CCOCC3)cc21` [Compound 14], for which the equilibrium dissociation constant (Kd) in test [1] is 11 nM; in test [2] it was greater than 30200 nM; in test [3] it was greater than 30200 nM; in test [4], 3300 nM; in test [7] it was 21900 nM. For the same compound, the IC50 in test [5] was 220 nM; in test [6] it was 320 nM.
On to `Cc1c(Cn2c(C)nc3cnc(C4=CCOCC4)cc32)cccc1C(F)(F)F` [Compound 13], for which the Kd was 3 nM in test [1]; greater than 30200 nM in test [2]; 5900 nM in test [3]; 1300 nM in test [4]; 17000 nM in test [7]. Moreover, the figures for the concentration for half-maximal inhibition (IC50) in test [5] and in test [6] were 80 nM and 170 nM, respectively.
As for `Cc1c(Cn2c(C)nc3c(N)nc(C4=CCOCC4)cc32)cccc1C(F)(F)F` [Compound 4], the Kd in test [1] was 9 nM; in test [2] it was greater than 30200 nM; in test [3] it was 17000 nM; in test [4], 4300 nM; in test [7], greater than 30200 nM. The IC50 was 150 nM in test [5] and roughly 140 nM in test [6].
Regarding `Cc1c(F)cccc1Cn1c(C)nc2c(N)nc(N3CCOCC3)cc21` [Compound 16], the Kd in test [1] is 132 nM; in test [2], greater than 30200 nM; in test [3], greater than 30200 nM; in test [4], 5600 nM; in test [7], greater than 30200 nM. For the same compound, the half-maximal inhibitory concentration (IC50) in test [5] amounted to 180 nM; in test [6], 410 nM.
Take `Cc1c(Cn2c(C)nc3c(N)nc(N4CCOCC4)cc32)cccc1C(F)(F)F` [Compound 15]: the Kd in test [1] was 398 nM; in test [2] it was greater than 30200 nM; in test [3], 18200 nM; in test [4], 6300 nM; in test [7], greater than 30200 nM. Further, the values for the IC50 in test [5] and in test [6] were 90 nM and 120 nM, respectively.
`Cc1nc2cnc(N3CCOCC3)cc2n1Cc1cccc2c1CN(CCO)CC2` [Compound 11]: the equilibrium dissociation constant (Kd) in test [1] is 27 nM; in test [2], greater than 30200 nM; in test [3] it was 8700 nM; in test [4], 1300 nM; in test [7] it was 32400 nM. Moreover, the concentration for half-maximal inhibition (IC50) in test [5] and in test [6] was greater than 510 nM each time.
